Source: PubChem BioAssay (NCI)
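Where inhibition never reached the appropriate level, the endpoint shown equals the highest concentration tested. Otherwise, values were interpolated linearly from a five-concentration, 48-hour dose response in 96-well plates. TGI: concentration producing complete growth inhibition.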

Columns and labels:
Test in all cases: NCI-60 cell line screen, 48 h
SF-539 CNS = system: SF-539 CNS
HCC-2998 colon = system: HCC-2998 colon
RXF 393 renal = system: RXF 393 renal
KM12 colon = system: KM12 colon
SW-620 colon = system: SW-620 colon
A549 NSCLC = system: A549 NSCLC
T-47D breast = system: T-47D breast
SNB-75 CNS = system: SNB-75 CNS
SK-MEL-28 melanoma = system: SK-MEL-28 melanoma
OVCAR-5 ovarian = system: OVCAR-5 ovarian
OVCAR-4 ovarian = system: OVCAR-4 ovarian
SF-295 CNS = system: SF-295 CNS
MDA-MB-231 breast = system: MDA-MB-231 breast
SR leukemia = system: SR leukemia
MDA-N = system: MDA-N
MDA-MB-435 = system: MDA-MB-435
HL-60(TB) leukemia = system: HL-60(TB) leukemia
HCT-15 colon = system: HCT-15 colon
ACHN renal = system: ACHN renal
NCI-H460 lung = system: NCI-H460 lung
LOX IMVI melanoma = system: LOX IMVI melanoma
K-562 leukemia = system: K-562 leukemia
A498 renal = system: A498 renal
SK-MEL-2 melanoma = system: SK-MEL-2 melanoma
OVCAR-8 ovarian = system: OVCAR-8 ovarian
MOLT-4 leukemia = system: MOLT-4 leukemia
CCRF-CEM leukemia = system: CCRF-CEM leukemia
PC-3 prostate = system: PC-3 prostate
UACC-62 melanoma = system: UACC-62 melanoma
M14 melanoma = system: M14 melanoma
MCF7 breast = system: MCF7 breast
SK-OV-3 ovarian = system: SK-OV-3 ovarian
SNB-19 CNS = system: SNB-19 CNS
SF-268 CNS = system: SF-268 CNS
NCI-H23 lung = system: NCI-H23 lung
HOP-62 NSCLC = system: HOP-62 NSCLC
SK-MEL-5 melanoma = system: SK-MEL-5 melanoma
COLO 205 colon = system: COLO 205 colon
OVCAR-3 ovarian = system: OVCAR-3 ovarian
DU-145 prostate = system: DU-145 prostate
CAKI-1 renal = system: CAKI-1 renal
HS 578T breast = system: HS 578T breast
HOP-92 NSCLC = system: HOP-92 NSCLC
EKVX NSCLC = system: EKVX NSCLC
TK-10 renal = system: TK-10 renal
IGROV1 ovarian = system: IGROV1 ovarian
RPMI-8226 leukemia = system: RPMI-8226 leukemia
UACC-257 melanoma = system: UACC-257 melanoma
HT29 colon = system: HT29 colon
U251 CNS = system: U251 CNS
NCI-H226 lung = system: NCI-H226 lung
NCI/ADR-RES ovarian = system: NCI/ADR-RES ovarian
UO-31 renal = system: UO-31 renal

In the case of `Cc1ccc(C(=O)N/N=C(\N=Nc2cccc(C)c2)c2ccc(N(CCC#N)CCC#N)cc2C)cc1`, the TGI (SF-539 CNS) is reported as > 100 µM, the TGI (HCC-2998 colon) is reported as > 100 µM and the TGI (RXF 393 renal) is reported as > 100 µM. For the same compound, the TGI (KM12 colon) was > 100 µM, the TGI (SW-620 colon) was > 100 µM and the TGI (A549 NSCLC) was > 100 µM. The TGI (T-47D breast) was > 100 µM, the TGI (SNB-75 CNS) was > 100 µM and the TGI (SK-MEL-28 melanoma) was 61.4 µM. The TGI (OVCAR-5 ovarian) was > 100 µM, the TGI (OVCAR-4 ovarian) was > 100 µM and the TGI (SF-295 CNS) was > 100 µM. The TGI (MDA-MB-231 breast) was > 100 µM, the TGI (SR leukemia) was > 100 µM and the TGI (MDA-N) was > 100 µM. For the same compound, the TGI (MDA-MB-435) was > 100 µM, the TGI (HL-60(TB) leukemia) was > 100 µM and the TGI (HCT-15 colon) was > 100 µM. For the same compound, the TGI (ACHN renal) was > 100 µM, the TGI (NCI-H460 lung) was > 100 µM and the TGI (LOX IMVI melanoma) was > 100 µM. The TGI (K-562 leukemia) was > 100 µM, the TGI (A498 renal) was > 100 µM and the TGI (SK-MEL-2 melanoma) was > 100 µM. The TGI (OVCAR-8 ovarian) was > 100 µM, the TGI (MOLT-4 leukemia) was > 100 µM and the TGI (CCRF-CEM leukemia) was > 100 µM. For the same compound, the TGI (PC-3 prostate) was > 100 µM, the TGI (UACC-62 melanoma) was > 100 µM and the TGI (M14 melanoma) was > 100 µM. For the same compound, the TGI (MCF7 breast) was > 100 µM, the TGI (SK-OV-3 ovarian) was > 100 µM and the TGI (SNB-19 CNS) was > 100 µM. For the same compound, the TGI (SF-268 CNS) was > 100 µM, the TGI (NCI-H23 lung) was > 100 µM and the TGI (HOP-62 NSCLC) was > 100 µM. For the same compound, the TGI (SK-MEL-5 melanoma) was > 100 µM, the TGI (COLO 205 colon) was > 100 µM and the TGI (OVCAR-3 ovarian) was > 100 µM. The TGI (DU-145 prostate) was > 100 µM, the TGI (CAKI-1 renal) was > 100 µM and the TGI (HS 578T breast) was > 100 µM. The TGI (HOP-92 NSCLC) was > 100 µM, the TGI (EKVX NSCLC) was > 100 µM and the TGI (TK-10 renal) was > 100 µM. For the same compound, the TGI (IGROV1 ovarian) was > 100 µM, the TGI (RPMI-8226 leukemia) was > 100 µM and the TGI (UACC-257 melanoma) was > 100 µM. For the same compound, the TGI (HT29 colon) was > 100 µM, the TGI (U251 CNS) was > 100 µM and the TGI (NCI-H226 lung) was > 100 µM. For the same compound, the TGI (NCI/ADR-RES ovarian) was > 100 µM and the TGI (UO-31 renal) was > 100 µM.
